The source of these data is ChEMBL document CHEMBL3244276, “Hydrogen-bonding parameter and its significance in quantitative structure--activity studies” (J Med Chem, 1977).

Series [1] can be described thus: physchem. The settings on record: octanol/water.
A short description of series [2]: physchem.
The conditions of series [3]: octanol/water.
The conditions of series [4]: octanol/water. This is another data set of the same source.
The conditions of series [5]: octanol/water. The source holds these as a separate data set.
For series [6] the following is noted: octanol/water. This is another data set of the same source.
For series [7] the following is noted: octanol/water. The source holds these as a separate data set.

Usually logP stands for a log measure of how a compound divides between an organic and an aqueous phase. High values mean a more lipophilic compound, low ones a more hydrophilic compound. In series [1], `Oc1cccc(I)c1` yielded a logP of 2.93. For `CC1OC(C)OC(C)O1` (stereo not drawn), the logP in series [2] (oil/water) came out at 0.28. Take `COc1cccc(OCC(=O)O)c1`: the logP in series [1] was 1.38. `CC(=O)c1ccc(S(N)(=O)=O)cc1` returned a logP in series [1] of 0.2.

For the molecule `Cc1cccc(S(N)(=O)=O)c1`, the logP in series [1] came to 0.85. As to `O=C(O)COc1ccccc1`, the logP in series [1] amounted to 1.26.

In series [1], `CNc1ccc(S(N)(=O)=O)cc1` displayed a logP of 0.08.

For the molecule `COc1ccc(S(N)(=O)=O)cc1`, the logP in series [1] is 0.47. Same read-out and setting: as for `N#Cc1ccc(S(N)(=O)=O)cc1`, the figure is 0.23; as for `NS(=O)(=O)c1ccc(Br)cc1`, 1.36. Still for that read-out and setting: the value for `NS(=O)(=O)c1ccc([N+](=O)[O-])c(C(F)(F)F)c1` was 1.73; that for `Oc1cccc(Br)c1` was 2.63. Still for that read-out and setting: the value for `CNC(=O)Oc1cccc(C(C)C)c1` was 2.63; that for `O=C(O)COc1cccc(C(=O)O)c1` was 1.11. `CC(O)C(C)O` (stereo not drawn): in series [2] (oil/water), the logP was -2.47.

On to `NS(=O)(=O)c1ccc([N+](=O)[O-])cc1`, for which the logP in series [1] is 0.64. Still for that read-out and setting: the value for `O=C(O)COc1ccc(O)cc1` was 0.65; that for `O=C(O)COc1cccc(Cl)c1` was 2.02; that for `CC(=O)Nc1cccc(OCC(=O)O)c1` was 0.47.

On to `O=C(O)COc1cccc([N+](=O)[O-])c1`, for which the logP in series [1] came to 1.37. On the same count and under the same terms, the value for `O=C(O)COc1cccc(C(F)(F)F)c1` was 2.33. Same read-out and setting: the value for `CCOc1ccccc1OC(=O)NC` was 1.24; that for `CNC(=O)Oc1ccccc1C#N` was 0.86.

`COP(=O)(OC)Oc1ccccc1` displayed a pKHB of 2.21. In series [1], this molecule gave a logP of 1.22.

In turn, `CNC(=O)Oc1ccccc1I` yielded a logP in series [1] of 1.96. `CNC(=O)Oc1ccccc1OC`: in series [1], the logP is 0.81. Same read-out and setting: the value for `CNC(=O)Oc1ccccc1[N+](=O)[O-]` was 1.02; that for `CNC(=O)Oc1cccc(Cl)c1` was 2.03. On the same count and under the same terms, as for `CNC(=O)Oc1cccc(Br)c1`, the figure is 2.25. The same measure, in the same setting: the value for `CNC(=O)Oc1cccc(OC)c1` was 1.3; that for `CNC(=O)Oc1cccc(N(C)C)c1` was 1.43.

Turning to `CNC(=O)Oc1cccc(C=O)c1`, the logP in series [1] turned out to be 0.92.

In the case of `CNC(=O)Oc1cccc(C(C)=O)c1`, in series [1], the logP came out at 0.9. The same measure, in the same setting: as for `CNC(=O)Oc1cccc(C#N)c1`, the figure is 0.98.

On to `CNC(=O)Oc1cccc([N+](=O)[O-])c1`, for which the logP in series [1] was found to be 1.39. The same measure, in the same setting: the value for `CNC(=O)Oc1ccc(C(C)C)cc1` was 2.8; that for `CNC(=O)Oc1ccc(I)cc1` was 2.46. For `CCOc1ccc(OC(=O)NC)cc1`, in series [1], the logP was determined as 1.64. `CNC(=O)Oc1ccc(C=O)cc1`: the logP in series [1] came to 0.99. The same measure, in the same setting: as for `CNC(=O)Oc1ccc(C(C)=O)cc1`, the figure is 1.01; as for `O=C(O)COc1ccc(F)cc1`, 1.41. The same measure, in the same setting: as for `Cc1ccc(OCC(=O)O)cc1`, the figure is 1.78. On the same count and under the same terms, as for `CS(=O)(=O)c1cccc(OCC(=O)O)c1`, the figure is 0; as for `CCc1cccc(OCC(=O)O)c1`, 2.23; as for `NS(=O)(=O)c1cccc([N+](=O)[O-])c1`, 0.55. Molecule `NS(=O)(=O)c1cccc(Cl)c1` returned a logP in series [1] of 1.29. Take `CN(C)c1ccccc1`: the pKHB is recorded as 0.45. This molecule also came in with a logP in series [3] of 2.38.

`CN(C)C(=O)c1ccccc1`: the pKHB turned out to be 2.22. This molecule gave a logP in series [1] of 0.62. The molecule `CN(C)Cc1ccccc1` returned a pKHB of 1.56. In series [3], the logP is given as 1.44. In series [1], the logP was determined as 1.98.

Take `CCOC(N)=O`: the logP in series [2] (oil/water) is -1.13. Consider `CC(=O)N(C)c1ccccc1`, for which the pKHB is 2. In series [3], this molecule registered a logP of -0.4. Further, the logP in series [1] was found to be 1.12. In the case of `Oc1ccc(I)cc1`, the logP in series [1] was determined as 2.91. In series [1], `Oc1cccc(F)c1` showed a logP of 1.93. Molecule `C[C@H](O)CCO` [1,3-BUTANEDIOL] yielded a logP in series [2] (oil/water) of -2.37.

Take `OCCCCO` [1,4-BUTANEDIOL]: the logP in series [4] was -1.72; in series [2] (octanol/water), -2.68. As to `OCCCCCCO` [1,6-HEXANEDIOL], the logP in series [2] (oil/water) was -2.17. In series [5], `CCCCCO` [1-PENTANOL] returned a logP of 0.36.

For `COc1cccc(O)c1` [1-hydroxy-3-methoxybenzene], the logP in series [1] worked out at 1.58. The same measure, in the same setting: as for `CNC(=O)Oc1ccc(C#N)cc1` [4-CYANOPHENYL METHYLCARBAMATE], the figure is 0.95; as for `CNC(=O)Oc1ccc([N+](=O)[O-])cc1` [4-NITROPHENYL METHYLCARBAMATE], 1.46.

Consider `CC(C)=O` [ACETONE], for which the logP in series [2] (oil/water) was -0.7. For the molecule `CC(=O)c1ccccc1` [ACETOPHENONE], the pKHB came to 1.13. Further, the logP in series [3] is listed as 1.14.

In series [3], `Nc1ccccc1` [ANILINE] showed a logP of -0.05. On to `COc1ccccc1` [ANISOLE], for which the pKHB was determined as 0.02.

In turn, `O=Cc1ccccc1` [BENZALDEHYDE] gave a pKHB of 0.8. In addition, the logP in series [3] was found to be 1.11. Consider `NS(=O)(=O)c1ccccc1` [BENZENESULFONAMIDE], for which the logP in series [1] worked out at 0.31. As to `N#Cc1ccccc1` [BENZONITRILE], the pKHB came out at 0.79. Further, the lipophilicity (logP) in series [3] amounted to 0.96. The logP in series [1] worked out at 1.56.

With `OCc1ccccc1` [BENZYL ALCOHOL], the logP in series [3] is -0.76. With `NCc1ccccc1` [BENZYLAMINE], in series [3], the logP is given as -0.15.

`Brc1ccccc1` [BROMOBENZENE] displayed a pKHB of -0.84. In addition, the logP in series [3] amounted to 3.08. As to `CCCC(N)=O` [BUTYRAMIDE], the logP in series [2] (oil/water) was -2.02.

Take `Clc1ccccc1` [CHLOROBENZENE]: the pKHB is -0.8. The molecule also showed a logP in series [3] of 2.98. In turn, `CCOCC` [ETHER] showed a logP in series [2] (oil/water) of 0.38.

On to `CCOC(C)=O` [ETHYL ACETATE], for which the logP in series [2] (oil/water) was 0.4. Take `CCc1ccccc1` [ETHYLBENZENE]: the pKHB is listed as -0.34.

Consider `OCCO` [ETHYLENE GLYCOL], for which the logP in series [4] is -2.28; in series [2] (octanol/water), -3.31. Consider `CCCCCC(=O)O` [HEXANOATE], for which, in series [5], the logP is recorded as 0.83.

In series [2] (oil/water), `CC(C)CC(N)=O` [ISOVALERAMIDE] yielded a logP of -1.64. Consider `COc1ccc(O)cc1` [MEQUINOL], for which the logP in series [1] is 1.34.

In series [1], `Cc1cccc(O)c1` [METACRESOL] gave a logP of 2.02. As to `C1N2CN3CN1CN(C2)C3` [METHENAMINE], in series [2] (oil/water), the logP was -3.68. For the molecule `COC(N)=O` [METHYL CARBAMATE], the logP in series [2] (oil/water) is -1.6. As to `CS(=O)(=O)c1ccccc1` [METHYLPHENYLSULFONE], the pKHB turned out to be 1.05. The logP in series [1] is 0.47. In series [1], `CNC(=O)Oc1cccc(C)c1` [METOLCARB] gave a logP of 1.7.

In the case of `O=[N+]([O-])c1ccccc1` [NITROBENZENE], the logP in series [3] is 1.49; in series [6], 2.93.

As to `NS(=O)(=O)c1ccc(Cl)cc1` [P-CHLOROBENZENESULFONAMIDE], the logP in series [1] was 0.84.

Regarding `Cc1ccc(S(N)(=O)=O)cc1` [P-TOLUENESULFONAMIDE], the logP in series [1] turned out to be 0.82. Molecule `CCOc1ccccc1` [PHENETOLE] displayed a pKHB of 0.22. This molecule also came in with a logP in series [1] of 2.51. For `Oc1ccccc1` [PHENOL], the logP in series [7] is on record as 1.3; in series [3] it was -0.89; in series [6], 0.36.

Molecule `O=C(O)Cc1ccccc1` [PHENYLACETIC ACID] showed a log partition coefficient (logP) in series [1] of 1.41. Regarding `CCC(N)=O` [PROPIONAMIDE], the logP in series [2] (oil/water) was -2.44. Take `CCC(=O)O` [PROPIONIC ACID]: the logP in series [5] is reported as -0.8.

In series [1], `CNC(=O)Oc1ccccc1OC(C)C` [PROPOXUR] had a logP of 1.52. Take `CC(O)CO` (stereo not drawn) [PROPYLENE GLYCOL]: the logP in series [2] (oil/water) is -2.77. Same read-out and setting: as for `O=C1CCC(=O)N1` [SUCCINIMIDE], the figure is -2.31. Molecule `Cc1ccccc1` [TOLUENE] came in with a pKHB of -0.29. The molecule `CC(=O)OCC(COC(C)=O)OC(C)=O` [TRIACETIN] returned a logP in series [2] (oil/water) of -0.36.

Take `CCCCC(=O)O` [VALERIC ACID]: the logP in series [2] (oil/water) is 0.48.
